In brackets after ≈: the same amount, converted by molar mass.

For experiment [1], the system named is P. aeruginosa CDC-0054 producing VIM-4, OXA-50, and PAO. The experiment can be described thus: Broth microdilution MIC in iron-depleted CAMHB (IDM). The format is cell-based. As to conditions: Pseudomonas aeruginosa, read-out: Minimum Inhibitory Concentration, P. aeruginosa CDC-0054. On the procedure:
(§1) Example IV: In Vitro Antibacterial Assays in Iron-Depleted Cation-Adjusted Mueller-Hinton Broth
(§2) To determine the ability of test compounds to inhibit the growth bacterial strains under conditions of iron-depletion, classic cell based broth microdilution minimum inhibitory concentration (MIC) assays were employed. MIC assays are performed according to CLSI methods except where otherwise noted (CLSI, 2018 and CLSI, 2019). The reference type strain E. coli ATCC 25922 was used to determine the ability of the PBP inhibitors to inhibit the growth of Enterobacteriaceae. Wild-type P. aeruginosa ATCC 27853, A. baumannii ATCC 17978 and A. baumannii ATCC 19606, along with the hyper-permeable P. aeruginosa ATCC 35151, an engineered efflux pump-compromised strain of P. aeruginosa (ΔmexAB-oprM), and an engineered efflux-pump compromised strain of A. baumannii IL123 (ABΔ3-ARAEcPore) were used to determine the ability of PBP inhibitors to penetrate the outer membrane of P. aeruginosa and A. baumannii and assess antibacterial activity against these important gram-negative organisms.
(§3) Briefly, cryo-preserved bacterial cultures of challenge strains are streaked for isolation on appropriate agar medium, in this case cation-adjusted Mueller Hinton agar. Following incubation to allow growth of the colonies, plates are sealed with parafilm and stored refrigerated for up to two weeks. For preparation of assay inoculum and to ensure low variability, at least 5 colonies are picked from the agar plates with an inoculating loop and aseptically transferred to a culture tube containing 3 mL of iron-depleted cation-adjusted Mueller Hinton broth (IDM)—see below for IDM preparation. The broth culture is grown for 3-5 hours at 37° C. with shaking at 200 rpm. Meanwhile, 2-fold serial dilutions of test compounds are conducted in a 96-well plate with a final volume of 75 μL per well at 2-fold the final desired concentration. After the dilution plates are set up the growing cultures are then diluted in a cuvette containing IDM and the optical density is measured at 600 nm. The inoculum is diluted such that 75 μL of this culture in IDM results in a starting bacterial concentration of 2-8×10^5 CFU/mL when added to the dilution plates. The plates are incubated for 16-20 hours for Enterobacteriaceae and Pseudomonas and 20-24 hours for Acinetobacter at 37° C. The MIC values are read visually as the lowest concentration well with no bacterial growth.
(§4) Method for Iron-Depleted Cation-Adjusted Mueller Hinton Broth (IDM) Preparation:
(§5) • Prepare cation-adjusted Mueller Hinton broth as per the manufacturer's recommendations and autoclave. • Add 100 g/L Chelex 100 resin, cover with foil and incubate with stirring for 2 hours • Remove Chelex 100 resin by filtration with 0.45 μm filter flask • Add the following back to the medium: • CaCl2 dihydrate: 82.5 mg/L • MgCl2 hexahydrate: 94.1 mg/L • ZnSO4: 10 μM • Adjust pH of medium to 7.3 with 5 N HCl • Sterilize using a 0.22 µm filter flask
In general terms: In broth dilution the organism is exposed to a series of concentrations in liquid medium.

Experiment [2] deals with P. aeruginosa CDC-0095 producing OXA-50, and PAO. Described as above. The format is cell-based. As to conditions: Pseudomonas aeruginosa, read-out: Minimum Inhibitory Concentration, P. aeruginosa CDC-0095. On the procedure: as §1, §2, §3, §4, §5
The subject of experiment [3] is A. baumannii ATCC 17978. The description is as above. It counts as cell-based. As to conditions: Acinetobacter baumannii, ATCC17978, read-out: Minimum Inhibitory Concentration, ATCC 17978. On the procedure: as §1, §2, §3, §4, §5
In experiment [4] the test system is A. baumannii ATCC 19606. Described as above. The format is cell-based. As to conditions: Acinetobacter baumannii, ATCC19606, read-out: Minimum Inhibitory Concentration, ATCC 19606. On the procedure: as §1, §2, §3, §4, §5
Experiment [5] deals with P. aeruginosa ATCC 27853. Described as above. It counts as cell-based. As to conditions: Pseudomonas aeruginosa, ATCC27853, read-out: Minimum Inhibitory Concentration, P. aeruginosa ATCC 27853. On the procedure: as §1, §2, §3, §4, §5
The test system of experiment [6] is A. baumannii CDC-0036 OXA-65, and OXA-24. Described as above. As to conditions: Acinetobacter baumannii, read-out: Minimum Inhibitory Concentration, CDC-0036. It counts as cell-based. On the procedure:
as §1, §2, §3, §4, §5

Experiment [7] relates to A. baumannii CDC-0083 producing NDM-1, PER-7, OXA-23, and OXA-69. The experiment is described as above. The format is cell-based. As to conditions: Acinetobacter baumannii, read-out: Minimum Inhibitory Concentration, CDC-0083. On the procedure: as §1, §2, §3, §4, §5
Experiment [8] relates to P. aeruginosa ATCC 35151. Described as above. It counts as cell-based. As to conditions: Pseudomonas aeruginosa, ATCC35151; iron-depleted MHB (IDM); hyper-permeable strain; read-out: Minimum Inhibitory Concentration, P. aeruginosa ATCC 35151. On the procedure:
as §1, §2, §3, §4, §5

Experiment [9] has as its system P. aeruginosa (ΔmexAB-oprM). The description is as above. As to conditions: Pseudomonas aeruginosa, read-out: Minimum Inhibitory Concentration, P. aeruginosa ΔmexAB-OprM. The format is cell-based. On the procedure: as §1, §2, §3, §4, §5
Experiment [10] has as its system A. baumannii CDC-0033 producing NDM-1, and OXA-94. The experiment is described as above. It counts as cell-based. As to conditions: Acinetobacter baumannii, read-out: Minimum Inhibitory Concentration, CDC-0033. On the procedure:
as §1, §2, §3, §4, §5

Experiment [11] concerns A. baumannii CDC-0045 producing TEM-1D, OXA-23, and OXA-69. The description is as above. The format is cell-based. As to conditions: Acinetobacter baumannii, read-out: Minimum Inhibitory Concentration, CDC-0045.
The subject of experiment [12] is P. aeruginosa CDC-0110. The experiment is described as above. As to conditions: Pseudomonas aeruginosa, CDC0110, read-out: Minimum Inhibitory Concentration, P. aeruginosa CDC-0110. It counts as cell-based. On the procedure:
as §2, §3, §4, §5

Experiment [13] in a line: Bocillin-FL fluorescence polarization competition binding assay, A. baumannii PBP3. As to conditions: fluorescence polarization competition binding assay using Bocillin-FL; column 3; read-out: 4. baumannii PBP1a Potency. An excerpt: Example I: Experimental Method for Penicillin-Binding Protein Binding Assays with Bocillin-FL Via Fluorescence Polarization
To determine the ability of boronic acid-based test PBP inhibitors to bind Penicillin Binding Proteins (PBPs), Bocillin-FL (fluorescently-labeled penicillin V; ThermoFisher Scientific) was used in a fluorescence polarization (FP) competition binding assay to assess inhibitor binding to PBP2, PBP3 or PBP4 from Escherichia coli (K12), PBP3 from Pseudomonas aeruginosa (PA01), PBP1a, PBP2 and PBP3 from Acinetobacter baumannii (ATCC 19606), and PBP2 from Neiserria gonorrheae (FA19). PBPs were cloned and purified as described previously (E. coli PBPs, King, D. T, et al., ACS Infectious Diseases 2015, 1, 175-184; P. aeruginosa PBP3, Han et. al., PNAS 2010, 107 (51), 22002-22007; A. baumannii PBPs, Penwell et. al., Antimicrob. Agents Chemother. 2015, 59 (3), 1680-1689; N. gonorrhoeae PBP2, Singh et. al., J Biol. Chem. 2019, 294 (38), 14020-14032). To establish assay conditions for competition binding, enzyme titration/saturation binding experiments were initially performed. Bocillin-FL was prepared at 0.2 μM in a buffer comprised of 50 mM Hepes (pH 8.0), 300 mM NaCl and 5% (v/v) glycerol for reactions with E. coli, P. aeruginosa and N. gonorrhoeae PBPs, and 25 mM Tris (pH 8.0), 200 mM NaCl and 10% (v/v) glycerol and 0.005% (v/v) Tween 20 for reactions with A. baumannii PBPs. Saturation binding was performed by mixing 40 μl of PBP solutions ranging in concentrations from 0-24 μM with 40 μl of the 0.2 μM Bocillin-FL solution, in individual wells of a black 384-well microplate. FP was measured immediately upon mixing (Excitation, 490 nm; Emission, 520 nm; g-factor, 0.96), using a Cytation3 (BioTek) microplate reader and measured continuously for up to 120 minutes. […] The competition binding assay (80 μl final volume) was validated using beta-lactams and PBPs at final concentrations of: 1.5 μM, E. coli PBP3; 0.75 μM, P. aeruginosa PBP3; 1 μM A. baumannii PBP1a; 2.5 μM A. baumannii PBP2; 0.2 μM A. baumannii PBP3; and […] N. gonorrhoeae PBP2. Bocillin-FL was at 0.1 μM (0.05 μM with A. baumannii PBP1a) and beta-lactam concentrations ranged from 0-1000 μM. […] Bocillin-FL was added and the FP immediately measured for up to 60 minutes (90 minutes for E. coli PBP2). […] The beta-lactam potency was reported as the concentration of beta-lactam required to reduce the amount of PBP bound-Bocillin-FL by 50% (EC50). […] Binding assays for boronic acid PBP inhibitors were performed in an identical fashion for the respective PBPs

As to `NCCCN1CCN(C(=O)N[C@@H](C(=O)N[C@H]2Cc3ccc(F)c(C(=O)O)c3OB2O)c2c(F)c(F)c(O)c(O)c2Cl)C(=O)C1=O` [Example 227, (R)-3-((R)-2-(4-(3-aminopropyl)-2,3-dioxopiperazine-1-carboxamido)-2-(2-chloro-5,6-difluoro-3,4-dihydroxyphenyl)acetamido)-7-fluoro-2-hydroxy-3,4-dihydro-2H-benzo[e][1,2]oxaborinine-8-carboxylic acid], the MIC in experiment [1] is 0.5 to 1 µg/mL (≈ 0.76 to 1.52 µM); in experiment [2], 2 to 4 µg/mL (≈ 3.04 to 6.08 µM); in experiment [3] it was 0.25 µg/mL (≈ 0.38 µM); in experiment [4], 0.25 µg/mL (≈ 0.38 µM); in experiment [5], 0.5 to 1 µg/mL (≈ 0.76 to 1.52 µM); in experiment [6], 2 to 4 µg/mL (≈ 3.04 to 6.08 µM). Also, the MIC in [7] is 2 to 4 µg/mL (≈ 3.04 to 6.08 µM); in experiment [8], 0.25 µg/mL (≈ 0.38 µM); in experiment [9] it was 0.25 µg/mL (≈ 0.38 µM); in [10], 8 to 16 µg/mL (≈ 12.2 to 24.3 µM); in experiment [11] it was 2 to 4 µg/mL (≈ 3.04 to 6.08 µM); in [12] it was 0.25 µg/mL (≈ 0.38 µM). The EC50 in experiment [13] was more than 100 µM.

Consider `CCN1CCN(C(=O)N[C@@H](C(=O)N[C@H]2Cc3ccc(F)c(C(=O)O)c3OB2O)c2c(F)c(F)c(O)c(O)c2Cl)C(=O)C1=O` [Example 228, (R)-3-((R)-2-(2-chloro-5,6-difluoro-3,4-dihydroxyphenyl)-2-(4-ethyl-2,3-dioxopiperazine-1-carboxamido)acetamido)-7-fluoro-2-hydroxy-3,4-dihydro-2H-benzo[e][1,2]oxaborinine-8-carboxylic acid], for which the MIC in [1] was 2 to 4 µg/mL (≈ 3.18 to 6.36 µM); in experiment [3], 0.5 to 1 µg/mL (≈ 0.795 to 1.59 µM); in experiment [4] it was 0.25 µg/mL (≈ 0.398 µM); in experiment [5] it was 0.5 to 1 µg/mL (≈ 0.795 to 1.59 µM); in experiment [6], 2 to 4 µg/mL (≈ 3.18 to 6.36 µM); in [7], 2 to 4 µg/mL (≈ 3.18 to 6.36 µM). In addition, the MIC in experiment [8] was 0.25 µg/mL (≈ 0.398 µM); in [9] it was 0.25 µg/mL (≈ 0.398 µM); in experiment [10], 2 to 4 µg/mL (≈ 3.18 to 6.36 µM); in [11], 2 to 4 µg/mL (≈ 3.18 to 6.36 µM); in experiment [12] it was 0.5 to 1 µg/mL (≈ 0.795 to 1.59 µM). Moreover, in experiment [13], the EC50 is 10 to 30 µM.

Turning to `CS(=O)(=O)N1CCN(C(=O)N[C@@H](C(=O)N[C@H]2Cc3ccc(F)c(C(=O)O)c3OB2O)c2c(F)c(F)c(O)c(O)c2Cl)C1=O` [Example 229, (R)-3-((R)-2-(2-chloro-5,6-difluoro-3,4-dihydroxyphenyl)-2-(3-(methylsulfonyl)-2-oxoimidazolidine-1-carboxamido)acetamido)-7-fluoro-2-hydroxy-3,4-dihydro-2H-benzo[e][1,2]oxaborinine-8-carboxylic acid], the MIC in [1] was 2 to 4 µg/mL (≈ 3.07 to 6.15 µM); in experiment [3] it was 0.25 µg/mL (≈ 0.384 µM); in [4], 0.5 to 1 µg/mL (≈ 0.768 to 1.54 µM); in experiment [5], 0.5 to 1 µg/mL (≈ 0.768 to 1.54 µM); in experiment [6], 2 to 4 µg/mL (≈ 3.07 to 6.15 µM); in experiment [7], 2 to 4 µg/mL (≈ 3.07 to 6.15 µM). Further, the MIC in [8] is 0.25 µg/mL (≈ 0.384 µM); in experiment [9], 0.25 µg/mL (≈ 0.384 µM); in experiment [10], 2 to 4 µg/mL (≈ 3.07 to 6.15 µM); in experiment [11], 8 to 16 µg/mL (≈ 12.3 to 24.6 µM); in [12] it was 0.5 to 1 µg/mL (≈ 0.768 to 1.54 µM). For the same molecule, the EC50 in experiment [13] lay within 10 to 30 µM.

The values above are taken from US20230114728A1 (Venatorx Pharmaceuticals, Inc., priority 2019, published 2023).
